Active and inactive are the calls of the source. The rule behind the calls is not given here.
Assay: inhibitors of TNFa-induced E-selectin expression, confirmation, imaging, retest plus dose response, cell count (AID 1288);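 note: 0% = stimulated vehicle wells and 100% = unstimulated vehicle wells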
Details: human endothelial cells, TNFa-induced E-selectin, imaging; at 2 µM; stronger effect = higher value

| Structure (SMILES) | inhibition |
| --- | --- |
| CCOc1cccc(C(=O)NC(=S)Nc2ccc(N3CCCC3)cc2)c1 | 10.5% (inactive) |
| Cc1ccc(-c2cc(NC(=O)CCl)n(-c3ccccc3)n2)cc1 | -2.61% (inactive) |
| CCC(=O)Nc1nnc(-c2ccccn2)o1 | 14.7% (inactive) |
| CC1=C(C(=O)N2CCC3(CC2)OCCO3)C2(CCC(C)CC2)OC1=O (stereo unspecified) | 6.34% (inactive) |
| COc1ccc(/C(C)=N/OCC(=O)N2CC3(C)CC2CC(C)(C)C3)cc1 (stereo unspecified) | 17.2% (inactive) |
| CCN(CC)S(=O)(=O)c1ccc(NC(=O)CSc2nnc(-c3ccc(F)cc3)o2)cc1 | 1.25% (inactive) |
| O=S(=O)(/N=C(/Nc1ccccc1)c1ccccc1)c1cccs1 | 5.98% (inactive) |
| Cc1cc(NC(=O)CCc2ccc(S(=O)(=O)N3CCOCC3)cc2)n(-c2ccccc2)n1 | -9.97% (inactive) |
| CC1CCN(S(=O)(=O)c2ccc(NC(=O)CSc3ncccc3C(=O)O)cc2)CC1 | 5.02% (inactive) |
| COc1cc(CC(=O)Oc2ccc3c(c2)OCO3)cc(OC)c1OC | 32.5% (inactive) |
| Cc1nnc(SCC(=O)N2CC(=O)Nc3ccccc32)n1C | 41% (inactive) |
| Cc1cc(NC(=O)CSc2n[nH]c(N)n2)no1 | 14.1% (inactive) |
| CCOC(=O)C1CCCN(C(=O)COC(=O)c2cc(=O)c3ccccc3o2)C1 (stereo unspecified) | 3.09% (inactive) |
| O=S(=O)(NCC(c1ccco1)N1CCN(c2ccccc2)CC1)c1ccc(F)cc1 (stereo unspecified) | 6.17% (inactive) |
| CCC(CC)C(=O)c1c[nH]c(C(=O)NCCCN2CCOCC2)c1 | 2.64% (inactive) |
| Cn1nnnc1SCC(=O)Nc1cccc([N+](=O)[O-])c1 | 2.78% (inactive) |
| CCC(=O)Nc1c(-c2ccc(OC)cc2)c(=O)c2ccccc2n1C | 6.09% (inactive) |
| O=C(Nc1cccc(-c2cn3ccccc3n2)c1)c1cccc(Cl)c1 | 8.96% (inactive) |
| CC12CCC3(CO)COC(c4ccccc4O1)C2C3 (stereo unspecified) | 13.6% (inactive) |
| Cc1ccc(SCCC(=O)Nc2ccccc2C(=O)NC(C)C)cc1 | 12.3% (inactive) |
| NC(=O)C1CCCN(C(=S)Nc2cccc3ccccc23)C1 (stereo unspecified) | 9.37% (inactive) |
| O=C(N/N=C1/CCS(=O)(=O)c2ccc(F)cc21)c1ccccn1 | 8.24% (inactive) |
| NC(=O)c1ccc(-c2ccc(Br)cc2)o1 | 36.5% (inactive) |
| O=C(Cc1cccs1)NNC(=S)NC(=O)c1ccc(F)c(F)c1 | 6.92% (inactive) |
| CCOC(=O)c1c(NC(=O)CSc2nnc(C)c(=O)[nH]2)sc(C)c1C | 8.64% (inactive) |
| Fc1cccc(F)c1CSc1nc2ccccc2[nH]1 | 3.56% (inactive) |

| Structure (SMILES) | inhibition |
| --- | --- |
| Cc1ccc2cc3c(NC(=O)C(C)C)nn(C)c3nc2c1 | 9.56% (inactive) |
| COc1ccc(Br)cc1C(=O)O | -3.94% (inactive) |
| O=C(Nc1ccc(-c2nc3cccnc3s2)cc1)c1ccc(Br)o1 | 5.96% (inactive) |
| Cc1ccc(C)n1-c1cccc(NC(=O)c2ccccc2)c1 | 0.87% (inactive) |
| O=C(Nc1ccc2nsnc2c1)c1ccc2c(c1)OCO2 | 7.37% (inactive) |
| COc1ccccc1N1CCN(c2cc(N3CCCC3)nc(C)n2)CC1 | -3.57% (inactive) |
| CCCCOC(=O)CCn1c(=S)oc2ccccc21 | 1.96% (inactive) |
| COCCCNCCCCOc1ccc(OCc2ccccc2)cc1 | -0.12% (inactive) |
| CCOC(=O)CCc1nc2ccccc2[nH]c1=O | 15.7% (inactive) |
| O=C(COc1ccc([N+](=O)[O-])cc1Cl)NCCc1ccccc1 | -2.48% (inactive) |
| Cn1cc(Cl)c(C(=O)NNC(=S)NCc2ccco2)n1 | 7.71% (inactive) |
| O=C(CCn1c2c(c3ccccc31)CCCC2)NNC(=O)c1ccccc1[N+](=O)[O-] | 2% (inactive) |
| O=C(N/N=C/c1ccc(C(F)(F)F)cc1)c1ccc(O)cc1 | 4.56% (inactive) |
| O=c1[nH][nH]cc1C=Nc1ccc(Cl)cc1 | 46.9% (inactive) |
| COC(=O)C(NC(=O)c1ccccc1)c1ccccc1 (stereo unspecified) | 5.65% (inactive) |
| COc1ccc(S(=O)(=O)Nc2cccc(S(=O)(=O)N3CCCCCC3)c2)cc1 | 31% (inactive) |
| CN=C(C)C1=C(O)C(C(=O)OC)C(C)(C)CC1=O (stereo unspecified) | -0.09% (inactive) |
| CC(=O)c1cccc(NS(=O)(=O)N2CCCCC2)c1 | -4.42% (inactive) |
| CSc1ccc(/C=N/NC(=O)CN2CCN(Cc3ccc(C)cc3)CC2)cc1 | -1.62% (inactive) |
| COc1ccc(C2=NNC(c3cccs3)=Nc3ccc(OC)cc32)cc1 | 17.8% (inactive) |
| O=C(Cn1ncc2c(=O)oc3ccccc3c21)N1CCc2ccccc2C1 | 9.96% (inactive) |
| CC(C)(C)OC(=O)NCC(=O)N1CCC(C(=O)O)CC1 | -3.45% (inactive) |
| CCOC(=O)c1ccc(NC(=S)NCC(O)c2ccccc2)cc1 (stereo unspecified) | 4.17% (inactive) |
| CCc1cc(OCCOCCN(C)C)ccc1Cl | 8.67% (inactive) |
| Cc1nc2c(sc3nc4c(cc32)COC(C)(C)C4)c(=O)o1 | 6.35% (inactive) |
| Cc1cc2nc(-c3ccc(SCc4ccc(C#N)cc4)nc3)[nH]c2cc1C | 1.98% (inactive) |

| Structure (SMILES) | inhibition |
| --- | --- |
| COc1cccc(S(=O)(=O)Nc2ccc(C(=O)N3CCN(C(=O)c4ccco4)CC3)cc2)c1 | 31.3% (inactive) |
| Cn1cc([N+](=O)[O-])c(C(=O)Nc2ccc(Br)cn2)n1 | 7.96% (inactive) |
| COc1ccc2c(c1)C1CC(C)(NC(=O)C1S(=O)(=O)c1ccc(F)cc1)O2 (stereo unspecified) | 28.9% (inactive) |
| CCOC(=O)C(CC)n1nc(C)n2c(cc3sccc32)c1=O (stereo unspecified) | 16.1% (inactive) |
| COc1ccc(-n2nnnc2SCc2nc(N)nc(N3CCOCC3)n2)cc1 | 33.7% (inactive) |
| Cc1ccc(C(=O)Nc2ccc(O)cc2C(=O)O)cc1 | 3% (inactive) |
| Cc1ccc(NC(=O)COc2ccc(-n3ccnc3)cc2)cc1Cl | 9.69% (inactive) |
| CS(=O)(=O)N(CC(=O)NCCC1=CCCCC1)C1CCCCC1 | -0.77% (inactive) |
| O=C1CC(c2ccccc2)CC2=C1CN(C1CCCCC1)CN2 (stereo unspecified) | 10.2% (inactive) |
| N/C(Cc1cccc2ccccc12)=N\OC(=O)c1ccc2c(c1)OCO2 | 6.4% (inactive) |
| Nn1c(CN2CCCCC2)nc2ccccc2c1=O | 12.2% (inactive) |
| CCCCN(C(=O)c1cc(OC)c(OC)c(OC)c1)C1=CC2CCC(C1)N2C (stereo unspecified) | 8.59% (inactive) |
| COc1ccccc1N(Cc1ccccc1)S(=O)(=O)c1cccc(C(=O)Nc2ccc(C(C)=O)cc2)c1 | 14.8% (inactive) |
| O=C(CCCN1CCOCC1)c1ccc2c(c1)OCCO2 | 2.27% (inactive) |
| O=S(=O)(c1ccccc1)N1CCN(CC(O)COc2ccc3c(c2)CCC3)CC1 (stereo unspecified) | 4.13% (inactive) |
| CCn1c(SCC(=O)NCc2ccco2)nnc1-c1ccc(N)cc1 | 10.3% (inactive) |
| C=CCn1c(COc2cccc(C)c2C)nnc1SCC(=O)N1CCN(c2ccccc2)CC1 | 5.6% (inactive) |
| CN1CCCN(S(=O)(=O)c2cccc(Cl)c2Cl)CC1 | -0.57% (inactive) |
| Cc1cccc(OCCCC(=O)O)c1 | 4.01% (inactive) |
| CC(=O)Nc1ccc(OCCF)cc1 | 0.31% (inactive) |
| C=CCn1c(SCC(=O)NC)nc2sc3c(c2c1=O)CCC3 | 4.27% (inactive) |
| CCOC(=O)N1CCC(N(CCOC)C(=O)Nc2ccc(Cl)cc2)CC1 | 2.12% (inactive) |
| COc1ccc(OC)c(CN2CCN(C(=O)COc3cccc(C)c3)CC2)c1 | 9.14% (inactive) |
| Cc1ccc2c(c1)C(c1ccc(F)cc1)N(C(=O)c1cc3ccccc3oc1=O)CC(=O)N2 (stereo unspecified) | -3.89% (inactive) |
| Cc1cc(NC(=O)CCC(=O)N(CC(=O)NCC2CCCO2)c2ccccc2C)no1 (stereo unspecified) | 14.8% (inactive) |
| O=C(CN1CCN(c2ccccc2F)CC1)c1c[nH]c2ccccc12 | -2.26% (inactive) |

| Structure (SMILES) | inhibition |
| --- | --- |
| Cc1nn(-c2ccccc2)c2sc(C(=O)O)cc12 | 2.23% (inactive) |
| COc1cc(NC2c3ncccc3C(=O)N2Cc2ccco2)cc(OC)c1 (stereo unspecified) | 7.75% (inactive) |
| CC(C)[C@H](NC(=O)CCn1nnc2ccccc2c1=O)C(=O)O | 4.34% (inactive) |
| Cc1ccc(S(=O)(=O)N2CCN(C(=O)C3COc4ccccc4O3)CC2)cc1C (stereo unspecified) | -0.52% (inactive) |
| O=C(CSc1nnc(-c2cc(-c3cccs3)nc3ccccc23)o1)NC1CCCCC1 | 5.57% (inactive) |
| O=C(NC(=O)c1cccc(OC(F)(F)C(F)F)c1)OC1CCS(=O)(=O)C1 (stereo unspecified) | 22.5% (inactive) |
| CCOC(=O)c1cccc(NC(=O)CSc2nnc(-c3ccoc3C)n2CCOC)c1 | -4.74% (inactive) |
| CN(C)CCNC(=O)/C(=C/c1ccc(-c2ccc(Cl)cc2)o1)NC(=O)c1ccccc1 | 0.09% (inactive) |
| Cc1ccc(N)cc1S(=O)(=O)N(C)C | 7.3% (inactive) |
| CCCc1c(O)c2ccccc2[nH]c1=O | 0.12% (inactive) |
| O=c1[nH]c2cc(NCCO)c([N+](=O)[O-])cc2[nH]1 | 15.2% (inactive) |
| O=C(NNc1nc2ccccc2s1)Nc1ccccc1 | 5.88% (inactive) |
| COCCn1c(SCC(=O)c2ccc(Cl)cc2)nnc1C(C)C | -5.2% (inactive) |
| CC(C)C(C(=O)O)N1CCS(=O)(=O)CC1 (stereo unspecified) | 7.68% (inactive) |
| COc1ccc(OCC(=O)N2CCN(Cc3c[nH]c4ccccc34)CC2)cc1 | -1.94% (inactive) |
| COCCNC(=O)c1ccc(N(C)S(=O)(=O)c2ccc(OC)c(OC)c2)cc1 | 0.94% (inactive) |
| O=C(CN(C(=O)CCC(=O)Nc1ccccn1)c1ccc2c(c1)OCO2)NCc1ccco1 | 36.3% (inactive) |
| O=C(Cn1cc(C(=O)C(F)(F)F)c2cc(Br)ccc21)N1CCOCC1 | 7.56% (inactive) |
| CCOC(=O)C(C)Oc1cccc2c(=O)n(CC(=O)Nc3cccc(OC)c3)ccc12 (stereo unspecified) | 22.4% (inactive) |
| COc1cccc(N2CC(C(=O)Nc3nnc(SCC(=O)c4ccccc4)s3)CC2=O)c1 (stereo unspecified) | 9.31% (inactive) |
| COc1ccc(NC(=O)c2cccnc2Cl)c(S(=O)(=O)N2CCOCC2)c1 | 6.27% (inactive) |
| N#CCc1c(C#N)c(N)nc(N2CCN(c3ccc(F)cc3)CC2)c1C#N | 4.37% (inactive) |
| C/C(=N\NC(=O)CC1N=C(Cc2ccccc2)NNC1=O)c1ccc(C)cc1 (stereo unspecified) | 3.58% (inactive) |

Source: PubChem BioAssay AID1288 (Columbia University Molecular Screening Center, 2008)
